Experimental data as given in patent US8029770B2 (Rutgers, The State University, priority 2003, dated 2011).
“Also recorded” adds a separate entry of the source. Read-outs that look alike come from different tables or passages of the source. Marks after values point to notes of the source that are not given here.

How the values were obtained:
[1] = system: apoptotic sunburn cells in the epidermis of SKH-1 mice; experiment: UVB-induced apoptotic sunburn cells in the epidermis of SKH-1 mice after topical application; type: in vivo, mouse
Method: Chemicals and Animals. […] Female SKH-1 hairless mice (6 to 7 weeks old) were purchased from the Charles River Breeding Laboratories, and the animals were kept in an animal facility for at least one week before use at 7 to 8 weeks of age. Mice were given water and PURINA® Laboratory CHOW® 5001 diet from Ralston-Purina (St. […] For the analysis conducted herein, 5 mice were used per group. Treatment of Mice with UVB. […] The radiation was further calibrated with a model IL-1700 research radiometer/photometer (International Light, Newburyport, Mass.). Measurement of apoptotic sunburn cells. Identification of apoptoic sunburn cells was based morphologically on cell shrinkage and nuclear condensation due to fragmentation of the cells. […] Six hours after UVB, the animals were sacrificed and apoptotic sunburn cells in the epidermis were determined morphologically. […] Six hours after UVB, the animals were sacrificed and apoptotic sunburn cells in the epidermis were determined morphologically. […] Acetone Formulation. […] Six hours after UVB, the animals were sacrificed and apoptotic sunburn cells in the epidermis were determined morphologically. […] […] Formulations. […] Six hours after UVB the animals were sacrificed and apoptotic sunburn cells in the epidermis were determined morphologically. […] Six hours after UVB the animals were sacrificed and apoptotic sunburn cells in the epidermis were determined morphologically.

[2] = system: UVB-induced skin tumors in high risk SKH-1 mice
phospho-Chk2 (Ser387) = experiment: Epidermal phospho-Chk2 (Ser387) in UVB-treated mice, western blot; type: in vivo, mouse; details: topical immediately after UVB 30 mJ/cm2; 6 hours
cyclin B1 = experiment: Epidermal cyclin B1 in UVB-treated mice, western blot and immunohistochemistry; type: in vivo, mouse
[3] = system: UVB-induced skin lesions in SKH-1 mice; experiment: Prevention of UVB-induced skin (sunburn) lesions, sunscreen effect; type: in vivo, mouse; details: 4.8% caffeine or 8.0% caffeine sodium benzoate (24 μmoles) in 100 mg DERMABASE 30 minutes before UVB 180 mJ/cm^2 on two consecutive days (FIG. 2)
Method: The areas (mm^2) and the intensity of red color in UVB-induced skin lesion were estimated semi-quantitatively 5 days after first UVB treatment. The lesion index were calculated as the lesion area multiplied by the arbitrary intensity: 0, no lesion; 1 barely detectable red lesion; 2 moderate red lesion, and 3, bright red lesion.
Outdoor occupational human exposure to UVB or a sunbathing exposure in the summer has been reported to range from 50-100 mJ/cm^2 per day (Larko, et al. (1983) Clin. Exp. Dermatol. 8:279-285; Diffey (1991) Phys. Med. Biol. 36:299-328).

[4] = system: apoptotic sunburn cells in the epidermis of FVB mice; experiment: UVB-induced apoptotic sunburn cells in FVB mice, topical caffeine; type: in vivo, mouse; details: 1.2 mg (6.2 μmole) in 100 μL acetone immediately, 0.5 and 2 hours after UVB 60 mJ/cm2; 6 hours
From the text: Apoptotic sunburn cells were identified by changes in morphology and counted.

[5] = Weight of mouse during topical treatment of UVB-pretreated high risk SKH-1 mice; type: in vivo
Method: Female SKH-1 mice were treated with 30 mJ/cm^2 of UVB twice a week for 20 weeks.

Cn1c(=O)c2c(ncn2C)n(C)c1=O [Caffeine, caffeine]
Percent Sunburn Cells, UVB ([1]; 6.2 μmole (each) in 100 μL acetone:water (9:1) immediately after UVB 30 mJ/cm^2 and at 30 and 120 min, 6 h, mean ± S.E.): 0.64 ± 0.15%
Percent Apoptotic Sunburn Cells ([1]; 6.2 μmole in 100 μL acetone right after UVB 30 mJ/cm^2 and at 30 and 120 min, 6 h after UVB, mean ± S.E.): 0.506 ± 0.013^a %
Percent Sunburn Cells, UVB ([1]; 100 mg formulation (2.4% caffeine or 4.0% caffeine sodium benzoate, 12.4 μmole, in DERMABASE; or commercial product) immediately after UVB 30 mJ/cm^2, 6 h): 1.96 ± 0.20^a %
Percent Sunburn Cells, UVB ([1]; 0.6% Caffeine in 100 mg DERMABASE immediately after UVB 30 mJ/cm^2, 6 h): 0.40 ± 0.18^a %
Percent Sunburn Cells, UVB ([1]; 1.2% Caffeine in 100 mg DERMABASE immediately after UVB 30 mJ/cm^2, 6 h): 0.58 ± 0.12^a %
Percent Sunburn Cells, UVB ([1]; 2.4% Caffeine in 100 mg DERMABASE immediately after UVB 30 mJ/cm^2, 6 h): 0.58 ± 0.14^a %
Percent Sunburn Cells, UVB ([1]; 3.6% Caffeine in 100 mg DERMABASE immediately after UVB 30 mJ/cm^2, 6 h): 0.82 ± 0.10^a %
Percent Sunburn Cells, UVB ([1]; 4.8% Caffeine in 100 mg DERMABASE immediately after UVB 30 mJ/cm^2, 6 h): 0.96 ± 0.13^a %
enhancement of UVB-induced apoptosis in the epidermis, applied in DERMABASE ([1]; DERMABASE vehicle, equimolar amounts (Table 4)): more effective at enhancing UVB-induced apoptosis when applied to the skin in DERMABASE™ than when applied to the skin in acetone
Percent Apoptotic Sunburn Cells ([1]; Exp-1, 6.2 μmole in acetone:water (9:1) x3 after UVB 30 mJ/cm^2, 6 h): 0.51 ± 0.01%
Percent Apoptotic Sunburn Cells ([1]; Exp-2, 6.2 μmole in acetone:water (9:1) x3 after UVB 30 mJ/cm^2, 6 h): 0.48 ± 0.04%
% Induction ([1]; Table 1, vs acetone group, 6.2 μmole x3 after UVB 30 mJ/cm^2, 6 h): 148%
% Induction ([1]; Table 2, vs acetone, 6.2 μmole in acetone:water (9:1)): 205%
% Induction ([1]; Table 3 Exp-1, 6.2 μmole): 155%
% Induction ([1]; Table 3 Exp-2, 6.2 μmole): 129%
% Induction ([1]; Table 4, 0.6% Caffeine in DERMABASE): 100%
% Induction ([1]; Table 4, 1.2% Caffeine in DERMABASE): 190%
% Induction ([1]; Table 4, 2.4% Caffeine in DERMABASE): 190%
% Induction ([1]; Table 4, 3.6% Caffeine in DERMABASE): 270%
% Induction ([1]; Table 5, vs DERMABASE, 100 mg formulation after UVB): 284%
No. of large tumors (diameter > 5 mm) ([2]; week 0, 1.2% CF in DERMABASE): 0
Tumor volume per mouse (all mice) (mm^3) ([2]; week 0, 1.2% CF in DERMABASE): 0 mm^3
Tumor volume per tumor (mm^3) ([2]; week 0, 1.2% CF in DERMABASE): 0 mm^3
Tumors per mouse ([2]; week 0, 1.2% CF in DERMABASE): 0
No. of large tumors (diameter > 5 mm) ([2]; week 0, 3.6% CF in DERMABASE): 0
Tumor volume per mouse (all mice) (mm^3) ([2]; week 0, 3.6% CF in DERMABASE): 0 mm^3
Tumor volume per tumor (mm^3) ([2]; week 0, 3.6% CF in DERMABASE): 0 mm^3
Tumors per mouse ([2]; week 0, 3.6% CF in DERMABASE): 0
No. of large tumors (diameter > 5 mm) ([2]; week 5, 1.2% CF in DERMABASE): 0
Tumor volume per mouse (all mice) (mm^3) ([2]; week 5, 1.2% CF in DERMABASE): 0.1 ± 0.0 mm^3
Tumor volume per tumor (mm^3) ([2]; week 5, 1.2% CF in DERMABASE): 0.5 ± 0.0 mm^3
Tumors per mouse ([2]; week 5, 1.2% CF in DERMABASE): 0.1 ± 0.1
No. of large tumors (diameter > 5 mm) ([2]; week 5, 3.6% CF in DERMABASE): 0
Tumor volume per mouse (all mice) (mm^3) ([2]; week 5, 3.6% CF in DERMABASE): 0.1 ± 0.0 mm^3
Tumor volume per tumor (mm^3) ([2]; week 5, 3.6% CF in DERMABASE): 0.5 ± 0.0 mm^3
Tumors per mouse ([2]; week 5, 3.6% CF in DERMABASE): 0.2 ± 0.1
No. of large tumors (diameter > 5 mm) ([2]; week 7, 1.2% CF in DERMABASE): 0
Tumor volume per mouse (all mice) (mm^3) ([2]; week 7, 1.2% CF in DERMABASE): 0.4 ± 0.2 mm^3
Tumor volume per tumor (mm^3) ([2]; week 7, 1.2% CF in DERMABASE): 1.3 ± 0.5 mm^3
Tumors per mouse ([2]; week 7, 1.2% CF in DERMABASE): 0.4 ± 0.1
No. of large tumors (diameter > 5 mm) ([2]; week 7, 3.6% CF in DERMABASE): 0
Tumor volume per mouse (all mice) (mm^3) ([2]; week 7, 3.6% CF in DERMABASE): 0.3 ± 0.1 mm^3
Tumor volume per tumor (mm^3) ([2]; week 7, 3.6% CF in DERMABASE): 1.3 ± 0.7 mm^3
Tumors per mouse ([2]; week 7, 3.6% CF in DERMABASE): 0.2 ± 0.1
No. of large tumors (diameter > 5 mm) ([2]; week 9, 1.2% CF in DERMABASE): 0
Tumor volume per mouse (all mice) (mm^3) ([2]; week 9, 1.2% CF in DERMABASE): 2.0 ± 1.0 mm^3
Tumor volume per tumor (mm^3) ([2]; week 9, 1.2% CF in DERMABASE): 3.3 ± 1.5 mm^3
Tumors per mouse ([2]; week 9, 1.2% CF in DERMABASE): 0.6 ± 0.2
No. of large tumors (diameter > 5 mm) ([2]; week 9, 3.6% CF in DERMABASE): 0
Tumor volume per mouse (all mice) (mm^3) ([2]; week 9, 3.6% CF in DERMABASE): 0.8 ± 0.5 mm^3
Tumor volume per tumor (mm^3) ([2]; week 9, 3.6% CF in DERMABASE): 1.9 ± 1.1 mm^3
Tumors per mouse ([2]; week 9, 3.6% CF in DERMABASE): 0.4 ± 0.1
No. of large tumors (diameter > 5 mm) ([2]; week 11, 1.2% CF in DERMABASE): 0
Tumor volume per mouse (all mice) (mm^3) ([2]; week 11, 1.2% CF in DERMABASE): 3.7 ± 1.4 mm^3
Tumor volume per tumor (mm^3) ([2]; week 11, 1.2% CF in DERMABASE): 3.5 ± 1.0 mm^3
Tumors per mouse ([2]; week 11, 1.2% CF in DERMABASE): 1.1 ± 0.3
No. of large tumors (diameter > 5 mm) ([2]; week 11, 3.6% CF in DERMABASE): 0
Tumor volume per mouse (all mice) (mm^3) ([2]; week 11, 3.6% CF in DERMABASE): 1.6 ± 0.6 mm^3
Tumor volume per tumor (mm^3) ([2]; week 11, 3.6% CF in DERMABASE): 1.3 ± 0.4 mm^3
Tumors per mouse ([2]; week 11, 3.6% CF in DERMABASE): 1.2 ± 0.3
UVB-induced increase in the level of phospho-Chk2 (Ser387) (phospho-Chk2 (Ser387)): inhibited
percent of cyclin B1 positive cells in the epidermis (cyclin B1; UVB-treated mice, frozen sections, immunohistochemical): substantially enhanced
effect on cyclin B1 positive cells in the absence of UVB (cyclin B1; no UVB): little or no effect
level of epidermal cyclin B1 vs UVB alone (cyclin B1; topical immediately after UVB 30 mJ/cm2, western blot): increased substantially
formation of UVB-induced sunburn (skin) lesions [3]: inhibited the formation of sunburn lesions; also recorded: inhibited UVB-induced sunburn lesions
enhancement of UVB-induced increase of apoptotic sunburn cells [4]: 120-150%
Weight of mouse ([5]; week 0, 1.2% CF in DERMABASE): 30.3 ± 0.5 g
Weight of mouse ([5]; week 0, 3.6% CF in DERMABASE): 30.5 ± 0.6 g
Weight of mouse ([5]; week 5, 1.2% CF in DERMABASE): 29.6 ± 0.5 g
Weight of mouse ([5]; week 5, 3.6% CF in DERMABASE): 30.0 ± 0.5 g
Weight of mouse ([5]; week 7, 1.2% CF in DERMABASE): 29.5 ± 0.5 g
Weight of mouse ([5]; week 7, 3.6% CF in DERMABASE): 29.6 ± 0.5 g
Weight of mouse ([5]; week 9, 1.2% CF in DERMABASE): 30.0 ± 0.4 g
Weight of mouse ([5]; week 9, 3.6% CF in DERMABASE): 29.8 ± 0.5 g
Weight of mouse ([5]; week 11, 1.2% CF in DERMABASE): 30.0 ± 0.5 g
Weight of mouse ([5]; week 11, 3.6% CF in DERMABASE): 30.1 ± 0.5 g
